Measured values: patent publication EP0091796A1, “Process for removing 1-sulfonyl groups from benzimidazoles” (ELI LILLY AND COMPANY, priority 1982, dated 1983)

Assay: pKa determination in 66% DMF/H2O
Details: for pKa: 66% dmf/h2o; for pK: solvent not given

Compound | pKa (single or first (lower) pKa) | further results
CC=C(c1ccccc1)c1ccc2nc(N)[nH]c2c1 [Example 2, 2-amino-5(6)-(ethylidenebenz^yl)benzimidazole] | 6.98 | 
C/C=C(\c1ccccc1)c1ccc2nc(N)[nH]c2c1 [Example 3, trans-2-amino-5(6)-(ethylidenebenzyl)benzimidazole] | 7.05 | 
Nc1nc2ccc(C(=O)c3ccccc3)cc2[nH]1 [Example 8, 2-amino-5(6)-benzoylbenzimidazole] | 5.7 | pKa (second (higher) printed pKa): 13.2
CON=C(c1ccccc1)c1ccc2nc(N)[nH]c2c1 [Example 1, 2-amino-5(6)-methoximephenylbenzimidazole] | 8.88 | 
C=C(c1ccccc1)c1ccc2nc(N)[nH]c2c1 [Example 6, 2-amino-5(6)-(methylidenebenzyl)benzimidazole] | 6.8 | 
Nc1nc2cc(C(=O)c3ccccc3)ccc2[nH]1 [Example 7, 2-amino-5(6)-benzoylbenzimidazole] |  | pK (first (lower) printed value): 5.65; pK (second (higher) printed value): 13.0
